Assay results from patent publication US10597396B2, “Beta-lactamase inhibitors” (Novartis AG, priority 2016, dated 2020).
Read-outs that look alike come from different tables or passages of the source.

Assays:
Type in all cases: cell-based
E. coli (CTX-M-15) = assay: microbe, parasite or virus in culture; conditions: for MIC: Escherichia coli
Method: (§1) MICs were determined by the broth microdilution method in accordance with Clinical and Laboratories Institute (CLSI) guidelines. In brief, fresh overnight bacterial cultures were suspended in sterile saline, and adjusted to a 0.5 McFarland turbidity standard. Bacterial suspensions were then diluted in cation adjusted Mueller-Hinton Broth (MHB II; BBL) to yield a final inoculum of approximately 5×10^5 colony-forming units (CFU)/mL. A master plate of antibiotics was prepared at a concentration equivalent to hundred-fold the highest desired final concentration in 100% dimethyl sulfoxide (DMSO). The master antibiotic plate was then diluted by serial twofold dilution with a multichannel pipette. The resulting dilution series of compounds were diluted 1:10 with sterile water or a solution of beta-lactamase inhibitor prepared at a concentration equivalent to eleven-fold the desired final concentration in deionized water leading to a 10% DMSO final concentration. A volume of 10 μL of the drug dilution series was transferred to 96-well assay plates. Assay plates were inoculated with 90 μL of bacterial suspensions and incubated at 35° C. for 20 hrs. The assay plates were read using a microtiter plate reader (Molecular Devices) at 600 nm as well as by visual observation with a reading mirror. The lowest concentration of the compound that prevented visible growth was recorded as the MIC.
(§2) Synergy or potentiation of beta-lactam antibiotics through inhibition of […] was assessed against an isogenic panel of E. coli strains, each expressing a unique beta-lactamase, and against clinical strains.
(§3) Strain NB27273 (BW25113 pspB::Km^r) was obtained from the Keio transposon insertion collection. The strain has the pspB gene replaced by a kanamycin resistance marker (BW25113 pspB::Km^r). This strain was cured of the transposon in pspB via FLP recombinase using published methodology. The resulting strain, BW25113 pspB, was used as a host for multicopy vectors expressing key beta-lactamases. Multicopy plasmids directing constitutive expression of beta-lactamases were established as follows: Synthetic, codon optimized genes encoding E. coli KPC-2, SHV-12 and CTX-M-15 beta-lactamases were made by DNA2.0 (Palo Alto, Calif.). Each of the synthetic fragments were designed to contain NotI and NcoI restriction sites at their termini, allowing ligation into a NotI/NcoI digested pET28a(+) derivative for protein expression. […] The codon optimized nucleotide sequences and relevant primer recognition information is shown below:
(§4) The PCR products were then digested with XhoI and EcoRI and ligated into similarly digested plasmid pAH63-pstS(BlaP). […] Therefore, expression of beta-lactamases from pAH63-pstS(BlaP) based constructs is constitutive and the signal sequence is provided to direct these proteins to the periplasm. […] These fragments were then digested with XbaI and EcoRI, and each was inserted into pBAD18-kan that had been digested with the same enzymes to generate multicopy vectors expressing KPC-2, SHV-12 and CTX-M-15, respectively. These vectors were transformed into BW25113 pspB to generate strains NB27273-CDY0033 (expressing KPC-2), NB27273-CDY0030 (expressing SHV-12), NB27273-CDY0034 (expressing CTX-M-15) and NB27273-CDY0036 (expressing AmpC). The pBAD18-kan vector also contains the TEM promoter region and signal sequence, (but lacks any intact beta-lactamase genes) and was transformed into BW25113 pspB using standard protocols to generate the control strain NB27273-CDY0026.

E. coli (KPC-2) = assay: microbe, parasite or virus in culture; conditions: for MIC: Escherichia coli
Method: as §1, §2, §3, §4

E. coli (SHV-12) = assay: microbe, parasite or virus in culture; conditions: for MIC: Escherichia coli
Method: as §1, §2, §3, §4

E. coli (TEM-10) = assay: microbe, parasite or virus in culture; conditions: for MIC: Escherichia coli
Method: as §1, §2
(§5) Construction of E. coli isogenic strains, NB27273-CDY0105 (OXA-18) and NB27273-CDY0048 (TEM-10). […] The gene encoding OXA-18 was then digested with XhoI and EcoRI and inserted into this vector, from which the gene for GIM-1 had been removed with XhoI and EcoRI.
From this template DNA, three fragments were generated by PCR using the following primer pairs;
This fragment was then digested with XbaI and EcoRI and inserted into pBAD-kan which was also cut with the same enzymes. […]

E. coli (AmpC) = assay: microbe, parasite or virus in culture; conditions: for MIC: Escherichia coli
Method: as §1, with “MIC. Performance of the assay was monitored by testing aztreonam against laboratory quality control strains in accordance with guidelines of the CLSI.” for “MIC.”
as §2
The gene encoding AmpC was PCR amplified from the genome of strain P. aeruginosa PAO1 (NB52019) (GenBank ID U5R279) using primer pair E252 (gccCTCGAGggcgaggccccggcggatcgc) (SEQ ID NO: 17) and E253 (tgaGAATTCtcagcgcttcagcggcacct) (SEQ ID NO: 18).
The PCR products were then digested with XhoI and EcoRI and ligated into similarly digested plasmid pAH63-pstS(BlaP). Plasmid pAH63-pstS(BlaP) is a derivative of plasmid pAH63 (J Bacteriol: 183(21): 6384-6393) made by cloning the TEM-1 (bla) promoter and signal peptide encoding region from plasmid pBAD (J Bacteriol. 1995 July 177(14):4121-30) into plasmid pAH63. This fragment was PCR amplified from pBAD using primer pair E192 (ttcaCTGCAGtgaacgttgcgaagcaacggC) (SEQ ID NO:19) and E194 (TCGAggatcctcgagagcaaaaacaggaaggcaaaatgccg) (SEQ ID NO:20), digested with PstI and BamHI and inserted into similarly digested plasmid pAH63. Therefore, expression of beta-lactamases from pAH63-pstS(BlaP) based constructs is constitutive and the signal sequence is provided to direct these proteins to the periplasm. […]

E. coli (OXA-18) = assay: microbe, parasite or virus in culture; conditions: for MIC: Escherichia coli
Method: as §1, §2, §5
These final vectors for expression of OXA-18 and TEM-10 were transformed into BW25113 pspB to generate strains NB27273-CDY0105 (expressing OXA-18) and NB27273-CDY0048 (expressing TEM-10).

[1] = test system: E. coli ATCC 25922, K. pneumoniae ATCC 43816, P. aeruginosa ATCC 27853; assay: Direct antibacterial activity of BLIs, summary of Table A in words; conditions: BLI alone; statement on Table A
Method: as §1, with “A volume of 10 μL of the drug dilution series was transferred to 96-well assay plates. Assay plates were inoculated with 90 μL of bacterial suspensions and incubated at 35° C. for 20 hrs.” left out, “MIC. Performance of the assay was monitored by testing aztreonam against laboratory quality control strains in accordance with guidelines of the CLSI.” for “MIC.”

[2] = test system: Enterobacter cloacae NB25055 (CMY-2); assay: Potentiation of beta-lactam MIC in beta-lactam resistant clinical isolate; conditions: read-out: Activity (MIC) of piperacillin alone
Method: as §1, with “MIC. Performance of the assay was monitored by testing aztreonam against laboratory quality control strains in accordance with guidelines of the CLSI.” for “MIC.”
as §2

[3] = test system: K. pneumoniae NB29082 (KPC-2); assay: as above; conditions: Klebsiella pneumoniae, read-out: Activity (MIC) of piperacillin alone
Method: as §1, with “MIC. Performance of the assay was monitored by testing aztreonam against laboratory quality control strains in accordance with guidelines of the CLSI.” for “MIC.”
as §2

S. aureus NB01437 (BLA+) = assay: as above; conditions: Staphylococcus aureus, read-out: Activity (MIC) of piperacillin alone
Method: as §1, with “MIC. Performance of the assay was monitored by testing aztreonam against laboratory quality control strains in accordance with guidelines of the CLSI.” for “MIC.”
as §2

[4] = test system: K. pneumoniae NB29323 (CTX-M-15, OXA-48, VEB-1); assay: as above; conditions: Klebsiella pneumoniae, read-out: Activity (MIC) of aztreonam alone
Method: as §1, with “MIC. Performance of the assay was monitored by testing aztreonam against laboratory quality control strains in accordance with guidelines of the CLSI.” for “MIC.”
as §2

[5] = no BLI, read-out: Activity (MIC) of Beta-Lactam 5 alone
[6] = read-out: MIC of ceftazidime alone, no BLI

Nc1nc(/C(=N/OC2(C(=O)O)CC2)C(=O)N[C@@H]2C(=O)N(S(=O)(=O)O)[C@@H]2CN2CCOC2=O)cs1 [Beta-Lactam 5]
MIC (E. coli (CTX-M-15); [5]): 0.125 µg/mL | MIC (E. coli (KPC-2); E. coli (KPC-2), no BLI, read-out: Activity (MIC) of Beta-Lactam 5 alone): 0.25 µg/mL | MIC (E. coli (SHV-12); [5]): 0.5 µg/mL | MIC (E. coli (TEM-10); [5]): 2 µg/mL | MIC (E. coli (AmpC); [5]): 0.25 µg/mL | MIC (E. coli (OXA-18); [5]): 0.5 µg/mL

O=C(NC1CCNCC1)[C@@H]1CC[C@@H]2CN1C(=O)N2OS(=O)(=O)O [Relebactam]
MIC of piperacillin in combination with the BLI (E. coli (OXA-18); BLI at 2 μg/mL): >32 µg/mL

NC(=O)[C@@H]1CC[C@@H]2CN1C(=O)N2OS(=O)(=O)O [Avibactam]
MIC of piperacillin in combination with the BLI (E. coli (OXA-18); BLI at 2 μg/mL): 2 µg/mL | Direct antibacterial activity of the BLI, in words [1]: exhibit direct antibacterial activity

C[C@]1(Cn2ccnn2)[C@H](C(=O)O)N2C(=O)C[C@H]2S1(=O)=O [Tazobactam]
MIC of piperacillin in combination with the BLI (E. coli (OXA-18); BLI at 4 μg/mL): 8 µg/mL

CCN1CCN(C(=O)N[C@@H](C(=O)N[C@@H]2C(=O)N3C2SC(C)(C)[C@@H]3C(=O)O)c2ccccc2)C(=O)C1=O (some centres unmarked) [Piperacillin]
MIC [2]: > 64 µg/mL | MIC [3]: > 64 µg/mL | MIC (S. aureus NB01437 (BLA+)): 64 µg/mL

O=C1[C@@H]2[C@@H](C[C@@H]3CN2C(=O)N3OS(=O)(=O)[O-])CN1C1CC1.[Na+] [Example 3, Sodium (4R,5aS,8aS)-7-cyclopropyl-2,8-dioxohexahydro-2H-1,4-methanopyrrolo[3,4-d][1,3]diazepin-3(4H)-yl sulfate]
MIC of piperacillin in combination with the BLI (E. coli (OXA-18); BLI at 2 μg/mL): 4 µg/mL

C[C@H]1[C@H](NC(=O)/C(=N\OC(C)(C)C(=O)O)c2csc(N)n2)C(=O)N1S(=O)(=O)O [Aztreonam]
MIC [4]: > 64 µg/mL

CN1C[C@@H]2C[C@@H]3CN(C(=O)N3OS(=O)(=O)[O-])[C@@H]2C1=O.[Na+] [Example 2, Sodium (4R,5aS,8aS)-7-methyl-2,8-dioxohexahydro-2H-1,4-methanopyrrolo[3,4-d][1,3]diazepin-3(4H)-yl sulfate]
MIC of piperacillin in combination with the BLI (E. coli (OXA-18); BLI at 2 μg/mL): 4 µg/mL

O=C1NCC[C@@H]2C[C@@H]3CN(C(=O)N3OS(=O)(=O)[O-])[C@H]12.[Na+] [Example 7, Sodium (4R,5aR,9aS)-2,9-dioxooctahydro-1,4-methanopyrido[3,4-d][1,3]diazepin-3(2H)-yl hydrogen sulfate]
MIC of piperacillin in combination with the BLI (E. coli (AmpC); BLI at 2 μg/mL): 8 µg/mL | MIC of piperacillin in combination with the BLI (E. coli (OXA-18); BLI at 2 μg/mL): 8 µg/mL

CC(C)(O/N=C(\C(=O)N[C@@H]1C(=O)N2C(C(=O)O)=C(C[n+]3ccccc3)CS[C@H]12)c1csc(N)n1)C(=O)O [Ceftazidime]
MIC (E. coli (CTX-M-15); [6]): 16 µg/mL | MIC (E. coli (KPC-2); read-out: MIC of ceftazidime alone): 4 µg/mL | MIC (E. coli (SHV-12); [6]): > 64 µg/mL | MIC (E. coli (TEM-10); [6]): > 64 µg/mL | MIC (E. coli (AmpC); [6]): 4 µg/mL | MIC (E. coli (OXA-18); [6]): > 64 µg/mL

O=C1NC[C@@H]2C[C@@H]3CN(C(=O)N3OS(=O)(=O)[O-])[C@H]12.[Na+] [Example 1, Sodium (4R,5aS,8aS)-2,8-dioxohexahydro-2H-1,4-methanopyrrolo[3,4-d][1,3]diazepin-3(4H)-yl sulfate]
MIC of piperacillin in combination with the BLI (E. coli (OXA-18); BLI at 2 μg/mL): 2 µg/mL | Direct antibacterial activity of the BLI, in words [1]: does not exhibit much direct antibiotic activity

Meropenem
MIC of meropenem alone (E. coli (CTX-M-15); no BLI): ≤0.06 µg/mL | MIC of meropenem alone (E. coli (KPC-2); E. coli (KPC-2), no BLI): 1 µg/mL | MIC of meropenem alone (E. coli (SHV-12); no BLI): ≤0.06 µg/mL | MIC of meropenem alone (E. coli (TEM-10); no BLI): ≤0.06 µg/mL | MIC of meropenem alone (E. coli (AmpC); no BLI): ≤0.06 µg/mL | MIC of meropenem alone (E. coli (OXA-18); no BLI): ≤0.06 µg/mL
